Assay [1] relates to L6-myotubes. Nature of the assay: Glucose uptake (3H-2-deoxyglucose) in differentiated L6-myotubes, compared to isoproterenol. To be noted: compound at 10 μM vs isoproterenol at 10 μM, read-out: Biological example 1: glucose uptake activity compared to that of isoproterenol. The format is cell-based. How it is done:
(§1) L6-myoblasts were grown in Dulbecco's Modified Eagle's Medium (DMEM) containing 1 g/L glucose supplemented with 10% fetal bovine serum, 2 mM L-Glutamine, 50 U/mL penicillin, […] streptomycin and 10 mM HEPES. Cells were plated at 1×10^5 cells per mL in 24-well plates. After reaching 90% confluence the cells were grown in medium containing 2% FBS for 7 days where upon cells differentiated into myotubes.
Differentiated L6-myotubes were serum-starved overnight in medium containing 0.5% fatty-acid free BSA and stimulated with an agonist, with a final concentration of 1×10^−5 M. After 1 h 40 min the cells were washed with warm glucose free medium or PBS twice and another portion of agonist was added to the glucose free medium. After 20 min the cells were exposed to 50 nM ^3H-2-deoxyglucose for another 10 min before washed in ice cold glucose free medium or PBS three times and lysed in 400 μL/well 0.2 M NaOH for 1 h at 60° C. The cell lysate was mixed with 4 mL scintillation buffer (Emulsifier Safe, Perkin Elmer) and the radioactivity was detected in a p-counter (Tri-Carb 4810TR, Perkin Elmer). The activity for each compound is compared to that of isoproterenol.

Assay [2] has as its system L6-myotubes. Nature of the assay: Measurement of intracellular cAMP levels (alpha screen cAMP kit) in differentiated cells, compared to isoproterenol. The format is cell-based. The following applies: 0.25 h, compound at 10 μM vs isoproterenol at 10 μM, 15 min stimulation, read-out: Biological example 2: intracellular cAMP level activity compared to that of isoproterenol. The procedure: as §1
Differentiated cells were serum-starved overnight and stimulated with an agonist, final concentration 1×10^−5 M, for 15 min in stimulation buffer (HBSS supplemented with 1% BSA, 5 mM HEPES and 1 mM IBMX, pH 7.4). The medium was aspirated and 100 μL of 95% EtOH was added to each well of the 24-well plate and cells were kept at −20° C. overnight. The EtOH was allowed to evaporate and 500 μL of lysis buffer (1% BSA, 5 mM HEPES and 0.3% Tween-20, pH 7.4) was added to each well. The plate was kept at −80° C. for 30 min and then at −20° C. until the day of detection when the samples were thawed. Intracellular cAMP levels were detected using an alpha screen cAMP kit (6760635D from Perkin Elmer). The activity for each compound is compared to that of isoproterenol.

Structures can show the parent of a compound that is named as a salt.

Take `CC(C)(CC1CCN(C(=O)C(F)(F)F)CC1)NC[C@H](O)c1cncc(F)c1` [Example 48, (R)-2,2,2-Trifluoro-1-(4-(2-((2-(5-fluoropyridin-3-yl)-2-hydroxyethyl)-amino)-2-methylpropyl)piperidin-1-yl)ethan-1-one dihydrochloride]: the Emax at 10 µM was 50 to 75% in the assay with L6-myotubes [1] and < 25% in the assay with L6-myotubes [2].

Take `COC(=O)N1CCC(CC(C)(C)NC[C@H](O)c2cncc(F)c2)CC1` [Example 49, Methyl (R)-4-(2-((2-(5-Fluoropyridin-3-yl)-2-hydroxyethyl)amino)-2-methylpropyl)piperidine-1-carboxylate dihydrochloride]: the Emax at 10 µM is > 75% in the assay on L6-myotubes [1] and < 25% in the assay on L6-myotubes [2].

`CN(C)C(=O)N1CCC(CC(C)(C)NC[C@H](O)c2cncc(F)c2)CC1` [Example 50, (R)-4-(2-((2-(5-Fluoropyridin-3-yl)-2-hydroxyethyl)amino)-2-methyl-propyl)-N,N-dimethylpiperidine-1-carboxamide dihydrochloride]: the Emax at 10 µM in the assay on L6-myotubes [1] was 50 to 75%; in the assay on L6-myotubes [2], < 25%.

With `CNC(=O)N1CCC(CC(C)(C)NC[C@H](O)c2cncc(F)c2)CC1` [Example 51, (R)-4-(2-((2-(5-Fluoropyridin-3-yl)-2-hydroxyethyl)amino)-2-methyl-propyl)-N-methylpiperidine-1-carboxamide dihydrochloride], the Emax at 10 µM in the assay with L6-myotubes [1] is 50 to 75%; in the assay on L6-myotubes [2], < 25%.

On to `CC(C)(C[C@H]1CCNC(=O)C1)NC[C@H](O)c1cccc(F)c1` [Example 52, (R)-4-(2-(((R)-2-(3-Fluorophenyl)-2-hydroxyethyl)amino)-2-methyl-propyl)piperidin-2-one], for which the Emax at 10 µM in the assay with L6-myotubes [1] was 50 to 75%; in the assay on L6-myotubes [2] it was < 25%.

Regarding `CC(C)(C[C@@H]1CCNC(=O)C1)NC[C@H](O)c1cccc(F)c1` [Example 53, (S)-4-(2-(((R)-2-(3-Fluorophenyl)-2-hydroxyethyl)amino)-2-methyl-propyl)piperidin-2-one], the Emax at 10 µM in the assay with L6-myotubes [1] and in the assay on L6-myotubes [2] was > 75% in each case.

Take `CC(C)(C[C@H]1CCNC(=O)C1)NC[C@H](O)c1cncc(F)c1` [Example 54, (R)-4-(2-(((R)-2-(5-Fluoropyridin-3-yl)-2-hydroxyethyl)amino)-2-methylpropyl)piperidin-2-one]: the results for the Emax at 10 µM with L6-myotubes [1] and with L6-myotubes [2] were 50 to 75% and < 25%, respectively.

For `CC(C)(C[C@@H]1CCNC(=O)C1)NC[C@H](O)c1cncc(F)c1` [Example 55, (S)-4-(2-(((R)-2-(5-Fluoropyridin-3-yl)-2-hydroxyethyl)amino)-2-methylpropyl)piperidin-2-one], the Emax at 10 µM with L6-myotubes [1] is > 75%; in the assay with L6-myotubes [2], 50 to 75%.

As for `CC(C)(C[C@H]1CCN(C(=O)OC(C)(C)C)C1)NC[C@H](O)c1cccc(F)c1` [Example 56, tert-Butyl (R)-3-(2-(((R)-2-(3-fluorophenyl)-2-hydroxyethyl)amino)-2-methylpropyl)pyrrolidine-1-carboxylate], the Emax at 10 µM in the assay on L6-myotubes [1] is 50 to 75%; in the assay on L6-myotubes [2], < 25%.

Regarding `CC(C)(C[C@H]1CCNC1)NC[C@H](O)c1cccc(F)c1` [Example 57, (R)-1-(3-Fluorophenyl)-2-((2-methyl-1-((R)-pyrrolidin-3-yl)propan-2-yl)amino)ethan-1-ol], the Emax at 10 µM in the assay on L6-myotubes [1] was > 75%; in the assay on L6-myotubes [2] it was < 25%.

`CC(=O)N1CC[C@H](CC(C)(C)NC[C@H](O)c2cccc(F)c2)C1` [Example 58, 1-((R)-3-(2-(((R)-2-(3-Fluorophenyl)-2-hydroxyethyl)amino)-2-methylpropyl)pyrrolidin-1-yl)ethan-1-one]: the Emax at 10 µM was > 75% in the assay on L6-myotubes [1] and < 25% in the assay on L6-myotubes [2].

For `CC(C)(C[C@H]1CCN(S(C)(=O)=O)C1)NC[C@H](O)c1cccc(F)c1` [Example 59, (R)-1-(3-Fluorophenyl)-2-((2-methyl-1-((R)-1-(methylsulfonyl)-pyrrolidin-3-yl)propan-2-yl)amino)ethan-1-ol], the Emax at 10 µM was > 75% in the assay with L6-myotubes [1] and < 25% in the assay on L6-myotubes [2].

Regarding `CC(C)(C[C@H]1CCN(C(=O)OC(C)(C)C)C1)NC[C@H](O)c1cncc(F)c1` [Example 60, tert-Butyl (R)-3-(2-(((R)-2-(5-fluoropyridin-3-yl)-2-hydroxyethyl)-amino)-2-methylpropyl)pyrrolidine-1-carboxylate], the values for the Emax at 10 µM with L6-myotubes [1] and in the assay on L6-myotubes [2] were 50 to 75% and < 25%, respectively.

Turning to `CC(=O)N1CC[C@H](CC(C)(C)NC[C@H](O)c2cncc(F)c2)C1` [Example 62, 1-((R)-3-(2-(((R)-2-(5-Fluoropyridin-3-yl)-2-hydroxyethyl)amino)-2-methylpropyl)pyrrolidin-1-yl)ethan-1-one], the Emax at 10 µM is > 75% in the assay with L6-myotubes [1] and < 25% in the assay with L6-myotubes [2].

With `CC(C)(C[C@H]1CCN(S(C)(=O)=O)C1)NC[C@H](O)c1cncc(F)c1` [Example 63, (R)-1-(5-Fluoropyridin-3-yl)-2-((2-methyl-1-((R)-1-(methylsulfonyl)-pyrrolidin-3-yl)propan-2-yl)amino)ethan-1-ol], the Emax at 10 µM in the assay on L6-myotubes [1] is > 75%; in the assay on L6-myotubes [2], < 25%.

For `CC(C)(C[C@@H]1CCN(C(=O)OC(C)(C)C)C1)NC[C@H](O)c1cccc(F)c1` [Example 64, tert-Butyl (S)-3-(2-(((R)-2-(3-fluorophenyl)-2-hydroxyethyl)amino)-2-methylpropyl)pyrrolidine-1-carboxylate], the Emax at 10 µM with L6-myotubes [1] is 50 to 75%; with L6-myotubes [2], > 75%.

On to `CC(C)(C[C@@H]1CCNC1)NC[C@H](O)c1cccc(F)c1` [Example 65, (R)-1-(3-Fluorophenyl)-2-((2-methyl-1-((S)-pyrrolidin-3-yl)propan-2-yl)amino)ethan-1-ol], for which the Emax at 10 µM in the assay on L6-myotubes [1] and in the assay with L6-myotubes [2] was > 75% each time.

For `CC(=O)N1CC[C@@H](CC(C)(C)NC[C@H](O)c2cccc(F)c2)C1` [Example 66, 1-((S)-3-(2-(((R)-2-(3-Fluorophenyl)-2-hydroxyethyl)amino)-2-methylpropyl)pyrrolidin-1-yl)ethan-1-one], the values for the Emax at 10 µM with L6-myotubes [1] and in the assay on L6-myotubes [2] were > 75% and 25 to 50%, respectively.

As to `CC(C)(C[C@@H]1CCN(S(C)(=O)=O)C1)NC[C@H](O)c1cccc(F)c1` [Example 67, (R)-1-(3-Fluorophenyl)-2-((2-methyl-1-((S)-1-(methylsulfonyl)-pyrrolidin-3-yl)propan-2-yl)amino)ethan-1-ol], the Emax at 10 µM with L6-myotubes [1] is > 75%; in the assay on L6-myotubes [2], < 25%.

For the compound `CC(C)(C[C@@H]1CCN(C(=O)OC(C)(C)C)C1)NC[C@H](O)c1cncc(F)c1` [Example 68, tert-Butyl (S)-3-(2-(((R)-2-(5-fluoropyridin-3-yl)-2-hydroxyethyl)-amino)-2-methylpropyl)pyrrolidine-1-carboxylate], the Emax at 10 µM in the assay with L6-myotubes [1] is > 75%; in the assay on L6-myotubes [2], 25 to 50%.

With `CC(C)(C[C@@H]1CCNC1)NC[C@H](O)c1cncc(F)c1` [Example 69, (R)-1-(5-Fluoropyridin-3-yl)-2-((2-methyl-1-((S)-pyrrolidin-3-yl)-propan-2-yl)amino)ethan-1-ol], the Emax at 10 µM is > 75% in the assay with L6-myotubes [1] and < 25% with L6-myotubes [2].

`CC(=O)N1CC[C@@H](CC(C)(C)NC[C@H](O)c2cncc(F)c2)C1` [Example 70, 1-((S)-3-(2-(((R)-2-(5-Fluoropyridin-3-yl)-2-hydroxyethyl)amino)-2-methylpropyl)pyrrolidin-1-yl)ethan-1-one]: the Emax at 10 µM was > 75% in the assay on L6-myotubes [1] and < 25% with L6-myotubes [2].

The values above are taken from patent publication US20260242335A1, “HETEROCYCLOALKYL BETA-HYDROXY ALKYL AMINES FOR USE IN THE TREATMENT OF HYPERGLYCAEMIA AND DISORDERS CHARACTERISED BY HYPERGLYCAEMIA” (ATROGI AB, priority 2023, published 2026).
